In ChEMBL document CHEMBL6153138, “Discovery of Novel Aromatic Urea-Imidazole Salt Derivatives for Cancer Therapy via Targeting ERK1/2” (J Med Chem, 2025):
Activity calls are given as the source filed them. No cut-off for these calls is given here.

How the values were obtained:
[1] = Toxicity in female BALB/c mouse assessed as effect on liver at 50 mg/kg, po qd measured after 18 days in presence of chloroquine by H and E staining based analysis; assay type: organism-based; conditions: in vivo, 432 h, time 18 day
MCF7 [2] = test: Downregulation of total c-Myc expression in human MCF7 cells at 0.5 to 2 uM measured after 30 mins to 4 hrs by Western blot analysis; assay type: functional, cell-based; conditions: dose 0.5-2 µM, time 30-240 min
[3] = Toxicity in female BALB/c mouse assessed as effect on lung at 25 to 50 mg/kg, po qd measured after 18 days by H and E staining based analysis; assay type: organism-based; conditions: in vivo, 432 h, dose 25-50 mg/kg, time 18 day
[4] = target: Non-receptor tyrosine-protein kinase TYK2 (Homo sapiens) (UniProt P29597); test: Inhibition of human TYK2 at 10000 nM by DiscoverX KINOMEscan assay relative to control
Sequence of Non-receptor tyrosine-protein kinase TYK2 (Homo sapiens) (P29597 whole entry): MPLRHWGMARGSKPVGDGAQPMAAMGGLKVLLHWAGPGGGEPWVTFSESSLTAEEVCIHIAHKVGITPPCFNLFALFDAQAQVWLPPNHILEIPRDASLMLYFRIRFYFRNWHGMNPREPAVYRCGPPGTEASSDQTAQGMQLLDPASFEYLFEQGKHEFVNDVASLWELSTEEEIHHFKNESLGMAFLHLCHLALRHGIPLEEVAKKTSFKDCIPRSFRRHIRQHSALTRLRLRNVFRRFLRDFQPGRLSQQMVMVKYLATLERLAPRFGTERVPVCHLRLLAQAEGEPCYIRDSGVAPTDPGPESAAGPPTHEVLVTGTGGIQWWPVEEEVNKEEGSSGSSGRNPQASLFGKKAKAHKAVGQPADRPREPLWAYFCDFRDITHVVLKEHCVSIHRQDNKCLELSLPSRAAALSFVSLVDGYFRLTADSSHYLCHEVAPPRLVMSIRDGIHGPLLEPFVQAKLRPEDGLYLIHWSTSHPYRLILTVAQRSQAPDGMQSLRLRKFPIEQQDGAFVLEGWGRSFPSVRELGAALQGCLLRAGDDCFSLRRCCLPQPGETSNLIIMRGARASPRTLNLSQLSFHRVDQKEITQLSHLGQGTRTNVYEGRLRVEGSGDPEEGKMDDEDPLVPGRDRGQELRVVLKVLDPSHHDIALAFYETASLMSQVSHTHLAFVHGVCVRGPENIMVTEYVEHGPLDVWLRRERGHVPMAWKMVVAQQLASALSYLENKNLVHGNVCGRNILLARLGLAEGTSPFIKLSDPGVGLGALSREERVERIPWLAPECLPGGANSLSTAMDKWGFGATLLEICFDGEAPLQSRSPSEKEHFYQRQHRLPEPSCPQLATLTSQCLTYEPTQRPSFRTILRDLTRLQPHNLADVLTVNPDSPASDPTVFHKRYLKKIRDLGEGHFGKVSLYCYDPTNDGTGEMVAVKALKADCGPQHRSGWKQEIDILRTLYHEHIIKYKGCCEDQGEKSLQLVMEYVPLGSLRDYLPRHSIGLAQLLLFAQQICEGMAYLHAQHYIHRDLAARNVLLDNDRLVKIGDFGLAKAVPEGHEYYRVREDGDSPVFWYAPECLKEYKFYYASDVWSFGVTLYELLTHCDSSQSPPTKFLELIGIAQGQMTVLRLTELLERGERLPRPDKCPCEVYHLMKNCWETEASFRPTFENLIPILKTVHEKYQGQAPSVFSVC

Mitochondrial membrane [5] = test: Induction of mitochondrial membrane potential loss in human MCF7 cells assessed as reduction in JC-1 aggregates by measuring decrease in red fluorescence at 0.5 uM by flow cytometry analysis (reference value: 24.7%); assay type: cell membranes; parameters: scale not given: the % may be the effect or the level left
[6] = AUC (0 to infinity) in Sprague-Dawley rat at 10 mg/kg, po by LC-MS/MS analysis; assay type: ADME, organism-based; conditions: in vivo
4T1-Luc [7] = test: Anti-metastatic activity in mouse 4T1-Luc cells assessed as reduction in destroyed alveolar wall at 25 to 50 mg/kg, po measured after 20 days by H and E staining based analysis; assay type: functional, organism-based; conditions: dose 25-50 mg/kg, time 20.0 day
MCF7 [8] = test: Induction of autophagic flux in human MCF7 cells assessed as colocalization of LAMP1 at 1 uM incubated for 48 hrs in presence of chloroquine by immunofluorescence analysis; assay type: functional, cell-based
MCF7 [9] = test: Inhibition of colony formation in human MCF7 cells harbouring ERK1 knockout at 1 uM incubated for 48 hrs by crystal violet staining based microscopic analysis; assay type: functional, cell-based
[10] = Toxicity in female BALB/c mouse assessed as effect on spleen at 25 to 50 mg/kg, po qd measured after 18 days by H and E staining based analysis; assay type: organism-based; conditions: in vivo, 432 h, dose 25-50 mg/kg, time 18 day
MCF7 [11] = test: Downregulation of p90RSK phosphorylation expression in human MCF7 cells at 0.5 to 2 uM measured after 30 mins to 4 hrs by Western blot analysis; assay type: functional, cell-based; conditions: dose 0.5-2 µM, time 30-240 min
4T1-Luc [12] = test: Anti-metastatic activity in mouse 4T1-Luc cells assessed as reduction in enlarged alveolar space at 25 to 50 mg/kg, po measured after 20 days by H and E staining based analysis; assay type: functional, organism-based; conditions: dose 25-50 mg/kg, time 20.0 day
MCF7 [13] = test: Induction of autophagy in human MCF7 cells assessed as upregulation of beclin1 expression incubated for 48 hrs by Western blotting analysis; assay type: functional, cell-based; conditions: dose 0.5-2 µM
[14] = Clearance in Sprague-Dawley rat at 1 mg/kg, iv by LC-MS/MS analysis; assay type: ADME, organism-based; conditions: in vivo
[15] = target: Mitogen-activated protein kinase; ERK1/ERK2 (Homo sapiens) (UniProt P27361+P28482); test: Binding affinity to ERK1/2 in human MCF7 cells assessed as protection of pronase-mediated protein degradation at 1 to 100 uM pre-incubated with compound for 1 hr followed by pronase digestion for 15 mins by DARTS analysis; assay type: cell-based; conditions: dose 1-100 µM, time 75.0 min
Sequence of Mitogen-activated protein kinase; ERK1/ERK2 (Homo sapiens) (P27361 whole entry, looked up): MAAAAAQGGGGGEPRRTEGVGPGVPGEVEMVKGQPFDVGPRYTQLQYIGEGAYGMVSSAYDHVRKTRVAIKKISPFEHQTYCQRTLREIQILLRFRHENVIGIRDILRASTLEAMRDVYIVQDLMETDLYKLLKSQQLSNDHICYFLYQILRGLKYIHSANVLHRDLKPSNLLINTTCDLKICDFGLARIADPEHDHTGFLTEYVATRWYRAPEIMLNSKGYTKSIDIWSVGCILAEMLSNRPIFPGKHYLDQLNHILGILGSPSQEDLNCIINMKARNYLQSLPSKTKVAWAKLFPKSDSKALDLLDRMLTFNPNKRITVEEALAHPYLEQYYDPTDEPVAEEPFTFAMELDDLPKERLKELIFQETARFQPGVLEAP
Sequence of Mitogen-activated protein kinase; ERK1/ERK2 (Homo sapiens) (P28482 whole entry, looked up): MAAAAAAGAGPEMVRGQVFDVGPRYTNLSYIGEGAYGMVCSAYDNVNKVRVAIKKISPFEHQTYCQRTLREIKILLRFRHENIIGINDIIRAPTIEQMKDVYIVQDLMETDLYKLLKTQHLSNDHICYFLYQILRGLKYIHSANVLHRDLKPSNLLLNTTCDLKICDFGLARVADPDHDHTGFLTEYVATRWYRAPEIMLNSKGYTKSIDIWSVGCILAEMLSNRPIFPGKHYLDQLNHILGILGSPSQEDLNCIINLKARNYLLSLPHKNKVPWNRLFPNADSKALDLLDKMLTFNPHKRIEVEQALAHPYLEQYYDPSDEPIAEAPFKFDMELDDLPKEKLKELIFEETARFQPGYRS

MCF7 [16] = test: Upregulation of ERK1/2 phosphorylation expression in human MCF7 cells at 2 uM measured after 12 to 24 hrs by Western blot analysis; assay type: functional, cell-based; conditions: time 12-24 hrs
MCF7 [17] = test: Upregulation of ERK1/2 phosphorylation expression in human MCF7 cells measured after 30 mins to 4 hrs by Western blot analysis; assay type: functional, cell-based; conditions: dose 0.5-2 µM, time 30-240 min
MCF7 [18] = test: Induction of apoptosis in human MCF7 cells assessed as early apoptotic cells at 1 uM incubated for 48 hrs in presence of 3-methyladenine by Annexin V/FITC and PI staining based flow cytometry analysis (reference value: 8.14%); assay type: functional
A-375 = test: Antiproliferative activity against human A-375 cells expressing B-Raf V600E mutant; assay type: functional, cell-based
Mitochondrial membrane [19] = test: Induction of mitochondrial membrane potential loss in human MCF7 cells assessed as reduction in JC-1 aggregates by measuring decrease in red fluorescence at 2 uM by flow cytometry analysis (reference value: 24.7%); assay type: cell membranes; parameters: scale not given: the % may be the effect or the level left
MCF7 [20] = test: Effect on MEK1/2 expression in human MCF7 cells at 0.5 to 2 uM measured after 30 mins to 4 hrs by Western blot analysis; assay type: functional, cell-based; conditions: dose 0.5-2 µM, time 30-240 min
MCF7 [21] = test: Induction of apoptosis in human MCF7 cells assessed as late apoptotic cells at 1 uM incubated for 48 hrs in presence of chloroquine by Annexin V/FITC and PI staining based flow cytometry analysis (reference value: 4.90%); assay type: functional
[22] = Half life in Sprague-Dawley rat at 10 mg/kg, po by LC-MS/MS analysis; assay type: ADME, organism-based; conditions: in vivo
MCF7 [23] = test: Induction of apoptosis in human MCF7 cells assessed as early apoptotic cells at 2 uM incubated for 48 hrs by Annexin V/FITC and PI staining based flow cytometry analysis (reference value: 1.1%); assay type: functional
4T1 [24] = test: Antitumor activity against mouse 4T1 cells implanted in female BALB/c mouse model assessed as tumor growth inhibition at 25 mg/kg, po qd measured for 18 days relative to control; assay type: functional; conditions: 4T1, 432 h, time 18 day, read-out: TGI
MCF7 [25] = test: Induction of autophagy in human MCF7 cells assessed as increase in LC3B-II level at 1 uM by Western blot analysis; assay type: functional, cell-based
MCF7 [26] = test: Induction of autophagy in human MCF7 cells assessed as increase in LC3B expression at 0.5 to 2 uM by immunofluorescence analysis; assay type: functional, cell-based; conditions: dose 0.5-2 µM
4T1 [27] = test: Antitumor activity against mouse 4T1 cells implanted in female BALB/c mouse model assessed as reduction in PCNA expression at 50 mg/kg, po in presence of chloroquine by immunohistochemical analysis; assay type: functional, organism-based
MCF7 [28] = test: Induction of autophagy in human MCF7 cells assessed as upregulation of LC3B-II expression incubated for 48 hrs by Western blotting analysis; assay type: functional, cell-based; conditions: dose 0.5-2 µM
[29] = Toxicity in female BALB/c mouse assessed as effect on spleen at 50 mg/kg, po qd measured after 18 days in presence of chloroquine by H and E staining based analysis; assay type: organism-based; conditions: in vivo, 432 h, time 18 day
[30] = Apparent volume of distribution in Sprague-Dawley rat at 1 mg/kg, iv by LC-MS/MS analysis; assay type: ADME, organism-based; conditions: in vivo, read-out: Vz
MCF7 [31] = test: Induction of autophagy in human MCF7 cells harbouring beclin1 knockout assessed as increase in LC3B expression at 1 uM incubated for 48 hrs by Western blot analysis; assay type: functional, cell-based
[32] = Half life in Sprague-Dawley rat at 1 mg/kg, iv by LC-MS/MS analysis; assay type: ADME, organism-based; conditions: in vivo

What does the source list for `O=C(Nc1cc(C(F)(F)F)cc(C(F)(F)F)c1)N[C@@H](Cc1ccccc1)Cn1c[n+](Cc2ccc3ccccc3c2)c2ccccc21.[Br-]`?
Activity [1]: Non-toxic; Activity (MCF7 [2]): Active; Activity [3]: Non-toxic; inhibition [4]: 14%; Activity (Mitochondrial membrane [5]): 17.2%; AUC(0-inf) [6]: 4080 ng·h/mL; Activity (4T1-Luc [7]): Active; Activity (MCF7 [8]): Active; inhibition (MCF7 [9]): inactive; Activity [10]: Non-toxic; Activity (MCF7 [11]): Active; Activity (4T1-Luc [12]): Active; Activity (MCF7 [13]): Dose-dependent-effect; clearance [14]: 15.2 mL/min/kg; Activity [15]: Active; Activity (MCF7 [16]): inactive; Activity (MCF7 [17]): Dose-dependent-effect; Activity (MCF7 [18]): 3.81%; IC50 (A-375): 0.75 µM; Activity (Mitochondrial membrane [19]): 5.4%; Activity (MCF7 [20]): inactive; Activity (MCF7 [21]): 26.9%; half-life [22]: 2.51 h; Activity (MCF7 [23]): 12.9%; inhibition in vivo at 25 mg/kg (4T1 [24]): 40.7%; Activity (MCF7 [25]): Active; Activity (MCF7 [26]): Dose-dependent-effect; Activity (4T1 [27]): Active; Activity (MCF7 [28]): Dose-dependent-effect; Activity [29]: Non-toxic; Vd [30]: 4.41 L/kg; Activity (MCF7 [31]): inactive; half-life [32]: 3.15 h
